# According to US10730863B2, “Bridged bicyclic compounds as farnesoid X receptor modulators” (BRISTOL-MYERS SQUIBB COMPANY, priority 2017, dated 2020):
# Target: FXR (Homo sapiens (Human), UniProt Q96RI1)
# Experiment: FXR EC50 (FXR agonist activity reported with each example)
# Format: cell-based
# FXR, sequence (Q96RI1 262-486): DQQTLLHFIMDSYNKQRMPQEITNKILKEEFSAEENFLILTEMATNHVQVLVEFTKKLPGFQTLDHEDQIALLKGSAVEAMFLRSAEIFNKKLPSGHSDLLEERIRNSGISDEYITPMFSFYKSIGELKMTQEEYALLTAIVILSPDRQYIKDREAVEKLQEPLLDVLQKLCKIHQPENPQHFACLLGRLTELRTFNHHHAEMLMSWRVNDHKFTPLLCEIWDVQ
row,EC50,SMILES
1,8 nM,"O=C(O)c1cc(OC(F)F)c2cc(OCC34CCC(OCc5c(-c6c(Cl)cncc6Cl)noc5C5CC5)(CC3)CC4)ccc2n1 [Example 284, 6-((4-((5-cyclopropyl-3-(3,5-dichloropyridin-4-yl)isoxazol-4-yl)methoxy)bicyclo[2.2.2]octan-1-yl)methoxy)-4-(difluoromethoxy)quinoline-2-carboxylic acid]"
2,130 nM,"O=C(O)c1ncc(OCC23CCC(OCc4c(-c5c(Cl)cncc5Cl)noc4C4CC4)(CC2)CC3)cc1C(F)(F)F [Example 285, 5-((4-((5-cyclopropyl-3-(3,5-dichloropyridin-4-yl)isoxazol-4-yl)methoxy)bicyclo[2.2.2]octan-1-yl)methoxy)-3-(trifluoromethyl)picolinic acid]"
3,230 nM,"NC(=O)c1cc(C(F)(F)F)c2cc(OCC34CCC(OCc5c(-c6c(Cl)cncc6Cl)noc5C5CC5)(CC3)CC4)ccc2n1 [Example 291, 6-((4-((5-cyclopropyl-3-(3,5-dichloropyridin-4-yl)isoxazol-4-yl)methoxy)bicyclo[2.2.2]octan-1-yl)methoxy)-4-(trifluoromethyl)quinoline-2-carboxamide]"
4,9 nM,"O=C(O)c1ncc(OCC23CCC(OCc4c(-c5c(Cl)cncc5Cl)noc4C4CC4)(CC2)CC3)c2ccccc12 [Example 292, 4-((4-((5-cyclopropyl-3-(3,5-dichloropyridin-4-yl)isoxazol-4-yl)methoxy)bicyclo[2.2.2]octan-1-yl)methoxy)isoquinoline-1-carboxylic acid]"
5,16 nM,"COCc1cc(OCC23CCC(OCc4c(-c5c(Cl)cncc5Cl)noc4C4CC4)(CC2)CC3)cnc1C(=O)O [Example 293, 5-((4-((5-cyclopropyl-3-(3,5-dichloropyridin-4-yl)isoxazol-4-yl)methoxy)bicyclo[2.2.2]octan-1-yl)methoxy)-3-(methoxymethyl)picolinic acid]"
6,32 nM,"CCOc1cc(OCC23CCC(OCc4c(-c5c(Cl)cncc5Cl)noc4C4CC4)(CC2)CC3)cnc1C(=O)O [Example 294, 5-((4-((5-cyclopropyl-3-(3,5-dichloropyridin-4-yl)isoxazol-4-yl)methoxy)bicyclo[2.2.2]octan-1-yl)methoxy)-3-ethoxypicolinic acid]"
7,63 nM,"O=C(O)c1ccc2nc(OCC34CCC(OCc5c(-c6c(Cl)cncc6Cl)noc5C5CC5)(CC3)CC4)ccc2n1 [Example 298, 6-((4-((5-cyclopropyl-3-(3,5-dichloropyridin-4-yl)isoxazol-4-yl)methoxy)bicyclo[2.2.2]octan-1-yl)methoxy)-1,5-naphthyridine-2-carboxylic acid]"
8,57 nM,"O=C(O)c1ncc(OCC23CCC(OCc4c(-c5c(Cl)cncc5Cl)noc4C4CC4)(CC2)CC3)cc1OCC(F)(F)F [Example 300, 5-((4-((5-cyclopropyl-3-(3,5-dichloropyridin-4-yl)isoxazol-4-yl)methoxy)bicyclo[2.2.2]octan-1-yl)methoxy)-3-(2,2,2-trifluoroethoxy)picolinic acid]"
9,42 nM,"COc1cc(OCC23CCC(OCc4c(-c5c(Cl)cncc5Cl)noc4C4CC4)(CC2)CC3)ncc1C(=O)O [Example 301, 6-((4-((5-cyclopropyl-3-(3,5-dichloropyridin-4-yl)isoxazol-4-yl)methoxy)bicyclo[2.2.2]octan-1-yl)methoxy)-4-methoxynicotinic acid]"
10,24 nM,"COc1cc(C(=O)O)nc2c(F)cc(OCC34CCC(OCc5c(-c6c(Cl)cncc6Cl)noc5C5CC5)(CC3)CC4)cc12 [Example 303, 6-((4-((5-cyclopropyl-3-(3,5-dichloropyridin-4-yl)isoxazol-4-yl)methoxy)bicyclo[2.2.2]octan-1-yl)methoxy)-8-fluoro-4-methoxyquinoline-2-carboxylic acid]"
11,11 nM,"CC(C)Oc1cc(C(=O)O)nc2c(F)cc(OCC34CCC(OCc5c(-c6c(Cl)cncc6Cl)noc5C5CC5)(CC3)CC4)cc12 [Example 304, 6-((4-((5-cyclopropyl-3-(3,5-dichloropyridin-4-yl)isoxazol-4-yl)methoxy)bicyclo[2.2.2]octan-1-yl)methoxy)-8-fluoro-4-isopropoxyquinoline-2-carboxylic acid]"
12,11 nM,"CCOc1cc(C(=O)O)nc2c(F)cc(OCC34CCC(OCc5c(-c6c(Cl)cncc6Cl)noc5C5CC5)(CC3)CC4)cc12 [Example 306, 6-((4-((5-cyclopropyl-3-(3,5-dichloropyridin-4-yl)isoxazol-4-yl)methoxy)bicyclo[2.2.2]octan-1-yl)methoxy)-4-ethoxy-8-fluoroquinoline-2-carboxylic acid]"
13,20 nM,"Cc1cc(C(=O)O)nc2c(F)cc(OCC34CCC(OCc5c(-c6c(Cl)cncc6Cl)noc5C5CC5)(CC3)CC4)cc12 [Example 307, 6-((4-((5-cyclopropyl-3-(3,5-dichloropyridin-4-yl)isoxazol-4-yl)methoxy)bicyclo[2.2.2]octan-1-yl)methoxy)-8-fluoro-4-methylquinoline-2-carboxylic acid]"
14,13 nM,"CCCc1cc(C(=O)O)nc2c(F)cc(OCC34CCC(OCc5c(-c6c(Cl)cncc6Cl)noc5C5CC5)(CC3)CC4)cc12 [Example 309, 6-((4-((5-cyclopropyl-3-(3,5-dichloropyridin-4-yl)isoxazol-4-yl)methoxy)bicyclo[2.2.2]octan-1-yl)methoxy)-8-fluoro-4-propylquinoline-2-carboxylic acid]"
15,9 nM,"O=C(O)c1cc(C2CC2)c2cc(OCC34CCC(OCc5c(-c6c(Cl)cncc6Cl)noc5C5CC5)(CC3)CC4)cc(F)c2n1 [Example 311, 4-cyclopropyl-6-((4-((5-cyclopropyl-3-(3,5-dichloropyridin-4-yl)isoxazol-4-yl)methoxy)bicyclo[2.2.2]octan-1-yl)methoxy)-8-fluoroquinoline-2-carboxylic acid]"
16,47 nM,"O=C(O)c1cc(OC2COC2)c2cc(OCC34CCC(OCc5c(-c6c(Cl)cncc6Cl)noc5C5CC5)(CC3)CC4)cc(F)c2n1 [Example 312, 6-((4-((5-cyclopropyl-3-(3,5-dichloropyridin-4-yl)isoxazol-4-yl)methoxy)bicyclo[2.2.2]octan-1-yl)methoxy)-8-fluoro-4-(oxetan-3-yloxy)quinoline-2-carboxylic acid]"
17,48 nM,"CCOc1cc(C(=O)O)nc2cc(F)c(OCC34CCC(OCc5c(-c6c(Cl)cncc6Cl)noc5C5CC5)(CC3)CC4)cc12 [Example 313, 6-((4-((5-cyclopropyl-3-(3,5-dichloropyridin-4-yl)isoxazol-4-yl)methoxy)bicyclo[2.2.2]octan-1-yl)methoxy)-4-ethoxy-7-fluoroquinoline-2-carboxylic acid]"
18,67 nM,"O=C(O)c1cc(OCC2CC2)c2cc(OCC34CCC(OCc5c(-c6c(Cl)cncc6Cl)noc5C5CC5)(CC3)CC4)c(F)cc2n1 [Example 314, 6-((4-((5-cyclopropyl-3-(3,5-dichloropyridin-4-yl)isoxazol-4-yl)methoxy)bicyclo[2.2.2]octan-1-yl)methoxy)-4-(cyclopropylmethoxy)-7-fluoroquinoline-2-carboxylic acid]"
19,7 nM,"COc1cc(OCC23CCC(OCc4c(-c5c(Cl)cncc5Cl)noc4C4CC4)(CC2)CC3)cc(C(=O)O)c1 [Example 321, 3-((4-((5-cyclopropyl-3-(3,5-dichloropyridin-4-yl)isoxazol-4-yl)methoxy)bicyclo[2.2.2]octan-1-yl)methoxy)-5-methoxybenzoic acid]"

row,SMILES,EC50
1,CS(=O)(=O)NC(=O)c1cc(C(F)(F)F)c2cc(OCC34CCC(OCc5c(-c6c(Cl)cncc6Cl)noc5C5CC5)(CC3)CC4)ccc2n1 [Example 286],19 nM
2,O=C(O)c1cc2ccc(OCC34CCC(OCc5c(-c6c(Cl)cncc6Cl)noc5C5CC5)(CC3)CC4)cc2cn1 [Example 287],96 nM
3,O=C(O)c1cc(C(F)(F)F)c2cc(OCC34CCC(OCc5c(-c6ccccc6C(F)(F)F)noc5C5CC5)(CC3)CC4)ccc2n1 [Example 288],250 nM
4,COc1cc(C(=O)O)nc2ccc(OCC34CCC(OCc5c(-c6ccccc6C(F)(F)F)noc5C5CC5)(CC3)CC4)cc12 [Example 289],150 nM
5,O=C(O)c1cc(OCC23CCC(OCc4c(-c5ccccc5C(F)(F)F)noc4C4CC4)(CC2)CC3)ccc1F [Example 290],260 nM
6,CCOc1cc(OCC23CCC(OCc4c(-c5c(Cl)cncc5Cl)noc4C4CC4)(CC2)CC3)cnc1C(N)=O [Example 295],230 nM
7,O=C(O)c1ncc(OCC23CCC(OCc4c(-c5ccccc5C(F)(F)F)noc4C4CC4)(CC2)CC3)c2ccccc12 [Example 296],62 nM
8,CCOc1cc(OCC23CCC(OCc4c(-c5ccccc5C(F)(F)F)noc4C4CC4)(CC2)CC3)cnc1C(=O)O [Example 297],543 nM
9,CCOc1cc(OCC23CCC(OCc4c(-c5ccccc5C(F)(F)F)noc4C4CC4)(CC2)CC3)cnc1C(N)=O [Example 299],2300 nM
10,O=C(O)c1ccc(OCC23CCC(OCc4c(-c5c(Cl)cncc5Cl)noc4C4CC4)(CC2)CC3)c2ncccc12 [Example 302],54 nM
11,O=C(O)c1ccc(OCC23CCC(OCc4c(-c5ccccc5C(F)(F)F)noc4C4CC4)(CC2)CC3)c2ncccc12 [Example 305],104 nM
12,"O=C(O)c1cc(OC2CCC2)c2cc(OCC34CCC(OCc5c(-c6c(Cl)cncc6Cl)noc5C5CC5)(CC3)CC4)cc(F)c2n1 [Example 308, 4-cyclobutoxy-6-((4-((5-cyclopropyl-3-(3,5-dichloropyridin-4-yl)isoxazol-4-yl)methoxy)bicyclo[2.2.2]octan-1-yl)methoxy)-8-fluoroquinoline-2-carboxylic acid]",12 nM
13,Cn1nc(OCC23CCC(OCc4c(-c5c(Cl)cncc5Cl)noc4C4CC4)(CC2)CC3)cc1C(=O)O [Example 315],340 nM
14,CCn1nc(OCC23CCC(OCc4c(-c5c(Cl)cncc5Cl)noc4C4CC4)(CC2)CC3)cc1C(=O)O [Example 316],64 nM
15,O=C(O)c1sc(OCC23CCC(OCc4c(-c5c(Cl)cncc5Cl)noc4C4CC4)(CC2)CC3)nc1C(F)(F)F [Example 317],210 nM
16,Cc1nc(OCC23CCC(OCc4c(-c5c(Cl)cncc5Cl)noc4C4CC4)(CC2)CC3)sc1C(=O)O [Example 318],180 nM
17,O=C(O)c1ccc(OCC23CCC(OCc4c(-c5c(Cl)cncc5Cl)noc4C4CC4)(CC2)CC3)cn1 [Example 319],270 nM
18,O=C(O)c1ccc(OCC23CCC(OCc4c(-c5c(Cl)cncc5Cl)noc4C4CC4)(CC2)CC3)c(C(F)(F)F)c1 [Example 320],410 nM
